The source of these data is patent US20080089947A1, “Calcium Influx Inhibitors in the Treatment of Ischemia” (priority 2006, published 2008).

In brackets after ≈: the same amount, converted by molar mass. Entries after “also recorded” stand apart in the source; their conditions may differ.

Data set [1] has as its system mitochondrial calcium uptake (mitochondrial calcium uniporter). The data set is described as follows: 45Ca2+ uptake in isolated liver mitochondria. The settings on record: for EC50: isolated mitochondria, pyruvate and malate, read-out: EC50 of inhibition of mitochondrial calcium uptake. It counts as biochemical, rat. The method, then:
Livers were isolated from male Sprague-Dawley rats (300 g). Rats were anesthetized with isoflurane and sacrificed by cervical dislocation. […] Briefly, the liver was minced and homogenized in liver homogenization buffer (LHB)(0.2 M mannitol, 50 mM sucrose, 10 mM KCl, and 1 mM Na2EDTA, pH=7.4, KOH). The homogenate was filtered through gauze and centrifuged 2 times for 10 min at 1,000× g. The supernatant was collected and centrifuged for 10 min at 3,000× g. The pellet was washed twice and resuspended in calcium-free LHB without EDTA to a concentration of 2 mg/mL. All steps were performed at 4° C.
A combination of metabolic substrates pyruvic acid and malic acid (final concentration 1 mM each) was used as a source of mitochondrial energy. Radioactive ^45Ca^2+ (NEN Life Sciences Products, Inc., Boston, Mass.) was added to the incubation buffer (final concentration range: 0.1-2.0 μM). The experiments were initiated by addition of mitochondria to the incubation buffer (final concentration 0.2 mg/ml). 2-APB (in DMSO) was added at concentrations from 0-100 μM to determine its effects on mitochondrial calcium uptake. Mitochondria were incubated in a 37° C. shaking water bath for 30 minutes, filtered, and washed. Accumulated mitochondrial ^45Ca^2+ was then measured using liquid scintillation counting in a Beckman LS6000IC beta counter. Mitochondria in incubation buffer without pyruvic acid and malic acid served as background controls. Ruthenium red (10 μM), a uniporter antagonist, was tested in all conditions to determine inhibitory capacity on observed mitochondrial calcium uptake, and to ensure that all observed calcium uptake was through the uniporter.
A combination of metabolic substrates pyruvic acid and malic acid was used as a source of mitochondrial energy. Radioactive ^45Ca^2+ was added to the incubation buffer (final concentration range: 0.1-2.0 μM). […] The calcium uptake experiments were initiated by addition of mitochondria to the incubation buffer (final concentration 0.2 mg/ml). Mitochondria were incubated in a 37° C. shaking water bath for 30 minutes, filtered, and washed, and calcium uptake quantified. Mitochondria in incubation buffer without pyruvic acid and malic acid served as background controls.

Data set [2] deals with liver ischemia/reperfusion injury. The method, then: 2-APB (2 mg/kg in DMSO), or vehicle (DMSO) was injected into the portal vein following 1 hour of ischemia, concurrent with removal of the vascular clamp. Animals were sacrificed after 3 hours of reperfusion (n=6 per group). Serum AST, ALT, and LDH levels were measured, and liver samples were evaluated histologically using H&E and TUNEL staining. To investigate the effect of 2-APB at the cellular level, an I/R model in HepG2 cells transfected with GFP-tagged cytochrome c was used. Statistical significance was assessed using Student t-test.

A further data set relates to liver transplantation. Conditions: donor livers cold stored 24 hours in UW containing 2-APB. The protocol: In further experiments, full scale liver transplants were performed in rats. Livers were harvested from male Sprague-Dawly rats and cold stored for 24 hours in UW solution, or UW containing 2-APB. The livers were then removed from cold storage and transplanted into recipient rats. The operations were performed under general anesthesia, and the animals were followed after surgery for 2 days.

For data set [3], the system named is liver ischemia/reperfusion injury. The source holds these as a separate data set.
Protocol: Methods: Following overnight fast, male Sprague-Dawley rats were placed under general anesthesia with isoflurane gas (3%, 2 L O2). Via a midline incision, a laparotomy was performed and the portal vein, hepatic artery, and bile duct were identified and dissected free from surrounding structures. […] Approximately 70% liver ischemia was created by using an atraumatic vessel clamp (S&T Microclamp B-3, Fine Science Tools, Foster City, Calif.) to occlude the portal vein and hepatic artery branches to the median and left liver lobes. […] The clamp was removed after 1 hour and the livers were given three hours to reperfuse with blood while the animals were conscious. Liver injury was assessed by serum levels of AST, ALT, LDH, which are three standard serum markers of acute ischemia/reperfusion injury to the liver. Histologic liver analysis using H&E staining and TUNEL assay, which identifies terminally damaged (apoptotic) cells, were used to look directly at cell damage in the collected livers.
Serum Transaminase Determinations: Serum collected from each animal at the time of euthanasia was analyzed for aspartate aminotransferase (AST), alanine aminotransferase (ALT), and lactic acid dehydrogenase (LDH) concentrations.
Assessment of apoptosis: In order to quantitate the rate of apoptosis in a sensitive manner, the inventors performed terminal deoxynucleotidyl transferase-mediated deoxyuridine triphosphate nick-end labeling (TUNEL) on paraffin embedded tissue sections from each animal. This assay was performed following the manufacturer's recommendations for a commercially available kit (ApopTag Plus Fluorescein In Situ Apoptosis Detection Kit, Chemicon International, Inc., Temecula, Calif.). Five randomly selected fields from each tissue section were examined at an original magnification of 200×. The number of positively staining cells per field was recorded. The average number of positively staining nuclei per field for each animal was used for analysis.
Quantitation of liver necrosis: Paraffin embedded tissue sections were stained with hematoxylin and eosin (H&E) and examined at an original magnification of 200×. Digital photomicrographs were made from five randomly selected fields of each tissue section. […] ImagePro software was used to create specific overlays of any region of necrosis in each of the photomicrographs. Using these overlays, percent area necrosis was calculated for each photomicrograph. The average percent area necrosis for each animal was then used for analysis.
In a further data set the test system is hepG2 cells. Conditions: 100 μM in UW prior to cold storage, 6 hour ischemic.
The conditions of data set [4]: cited from earlier work.
In data set [5] the test system is mitochondrial calcium uptake. The data set is described as follows: 45Ca2+ uptake with ATP in mitochondria from non-ischemic and 24 h cold-stored livers. It counts as biochemical, rat. The protocol:
Methods: Rat livers were perfused and stored using a previously reported technique (Belous et al., 2003). Briefly, an abdominal incision was made and the portal vein was cannulated with a 20-gauge cannula. The liver was then perfused with 30 ml 4° C. University of Wisconsin solution (UW). Half of the liver was processed for calcium uptake experiments immediately, while the other half was first stored for 24 hours in 4° C. UW solution (ischemic cold storage). Mitochondria were isolated from the liver as described in Example 1. Mitochondrial calcium uptake experiments were performed on isolated mitochondria from both the ischemic and non-ischemic portions of the liver as described in Example 1. In order to simulate the cellular conditions present during ischemia/reperfusion, 1 mM ATP was added to the incubation buffer. The selective, membrane-permeable PLC inhibitor, U-73122, was added to mitochondrial calcium uptake reaction tubes to a final concentration of 5 μM. This compound was tested on mitochondria isolated from both ischemic and non-ischemic livers to determine the effect of PLC inhibition on mitochondrial calcium uptake following ischemia/reperfusion. […] Ruthenium red (10 μM) was used to block the uniporter and ensure that all observed calcium uptake was ruthenium red-sensitive, and thus entering solely through the uniporter. To simulate reperfusion, mitochondria were incubated for 30 minutes in a 37° C. water bath with ATP present, after which the total mitochondrial calcium uptake was quantified as described in Example 1.

Data set [6] concerns liver ischemia/reperfusion injury. Description: 70% liver ischemia/reperfusion, ruthenium red pretreatment. It counts as in vivo, rat. The method, then:
Thirty minutes prior to the initiation of liver ischemia, animals received ruthenium red (30 mg/kg in NaCl) or vehicle (0.9% NaCl) IV. Ischemia was carried out for one hour. The total anesthesia time for the animals was 90 minutes. Sham operated animals received laparotomy, mobilization of the liver, and underwent equivalent anesthesia. Following vascular clamp removal, animals were allowed to reperfuse for periods of 15 minutes, 1 hr, 3 hr, or 6 hr. At the time of animal sacrifice, serum was collected, and liver tissue was preserved for histological analysis. A total of 40 animals were used for this experiment. Ten animals were used for each time point: 4 ischemia/reperfusion, 4r ischemia/reperfusion with ruthenium red pretreatment, and 2 sham operated animals. […] All experimental measurements and data were obtained as detailed in Example 2.

In another data set the test system is PLC. Conditions: read-out: EC50 reported for PLC inhibition in intact cells; cited from earlier work.
The mark [7] stands for this setting: 0.5-7.5 μM, 0.2 μM 45Ca2+, baseline 0.14% DMSO.
Where [8] appears, read: 30 mg/kg, 30 min before 1 h ischemia, 6 hours of reperfusion.

Protocol for hepG2 cells: To investigate the cellular mechanisms of 2-APB, an in vitro model using hepG2 cells transfected with GFP-tagged cytochrome c was used. […] Cells were grown at 37° C., 5% CO2 in MEM (ATCC, Manassas, Va.), with 10% fetal bovine serum, and 1% penicillin/streptomycin to 80% confluence. The media was replaced with UW solution and cells were incubated at 4° C. in hypoxic conditions for 6 hours. Hypoxia was achieved by placing the cells in an airtight incubator (Form a Scientifica, Marietta, Ohio), which was flushed with 5% CO2 and 95% N2 until the oxygen content in the container reached <0.1%, as verified using a dissolved O2 meter (Model 4000, VWR Scientific Products, Suwannee, Ga.). To render the storage solution hypoxic before experiments were carried out, UW was preincubated in the hypoxic chamber in an open sterile container for 8 h before experiments were carried out. […] Following 6 hours of hypothermic storage, the UW was replaced with warm, oxygenated media, and the cells were incubated at 37° C. Cytoplasmic extracts were harvested in lysis buffer (10 mM of KCl, 10 mM of HEPES, 1 mM of NaEDTA, 200 mM of Mannitol, 50 mM of sucrose) immediately following storage and after 60, 120, and 180 min of rewarming. HepG2 cytoplasmic extracts were harvested before exposure to storage conditions to serve as a control (untreated control). […]

With `NCCOB(c1ccccc1)c1ccccc1` [2-APB, 2-aminoethoxydiphenyl borate], the EC50 in data set [1] (30 min, 37° C.) lay in the range of 2000 to 3000 nM. The mitochondrial calcium influx result in data set [1] (range of 1-100 μM 2-APB) was “consistently and dose-dependently inhibited”. Moreover, the “elevation of serum AST, ALT and LDH” value in data set [2] (2 mg/kg in DMSO, portal vein at onset of reperfusion, 3 h reperfusion) is listed as “significantly inhibited”. Also, in [2] (2-APB administered during reperfusion), the “liver necrosis, H&E histology” value is given as “little evidence of liver necrosis”. For the same compound, the “Mortality at 2 days” value with liver transplantation is reported as 0%. For the same compound, the “liver damage by serum AST, ALT, LDH in sham-operated animals” value in [3] (2 mg/kg in DMSO, portal vein, after sham operation) was “neither 2-APB nor the vehicle, DMSO, were damaging to the liver”. In addition, in [3] (2 mg/kg in DMSO, portal vein, before 1 h ischemia, 3 h reperfusion), the “rise in serum AST, ALT and LDH” value was “eliminated the rise in AST, ALT and LDH”. Also, the “liver histology 400×” value in data set [3] (2 mg/kg portal vein before 1 h ischemia, 3 h reperfusion) was “Cells are healthy and appear identical to the normal liver cells”. In addition, the “cells undergoing cell death” value in [3] (2 mg/kg portal vein before 1 h ischemia, 3 h reperfusion, H&E and TUNEL) is reported as no more than 2%. In the data set with hepG2 cells, the “release of GFP-tagged cytochrome c into the cytoplasm” value was “prevented this release”. Moreover, in data set [4], the “solubility in DMSO” value is 20 mg/mL (≈ 88.8 mM) and the solubility in ethanol is 25 mg/mL (≈ 111 mM).

As for `COc1ccc2c(c1)CC[C@@H]1[C@@H]2CC[C@]2(C)[C@@H](NCCCCCCN3C(=O)CCC3=O)CC[C@@H]12` [U-73343, 1-[6-((17β-3-Methoxyestra-1,3,5(10)-trien-17-yl)amino)hexyl]-2,5-pyrrolidinedione], the mitochondrial calcium uptake entry in data set [1] (setting [7]) was “no effect; also recorded: did not significantly affect”; in data set [5] (5 μM, mitochondria from ischemic livers (24 h 4° C. UW)), “slight and insignificant decrease; also recorded: no effect”; in data set [5] (5 μM, mitochondria from non-ischemic livers), “slight but significant increase; also recorded: did not”.

Consider `N.N.N.N.N.N.N.N.N.N.N.N.N.N.[Cl-].[Cl-].[Cl-].[Cl-].[Cl-].[Cl-].[O-2].[O-2].[Ru+3].[Ru+3].[Ru+4]` [ruthenium red], for which the mitochondrial calcium uptake result in data set [1] (10 μM ruthenium red, 30 min, 37° C.) was “completely blocked”; in data set [5] (10 μM ruthenium red, mitochondria from both ischemic and non-ischemic livers) it was “prevented calcium uptake”; in [5] (10 μM ruthenium red, mitochondria from both ischemic and non-ischemic livers, listed as Ruthenium red) it was “completely blocked”. Also, the “serum ALT” value in data set [6] (setting [8]) is recorded as 294±39. For the same compound, in data set [6] (setting [8]), the “serum AST” value was determined as 597±121. In addition, in data set [6] (3 and 6 hours of reperfusion), the liver necrosis entry was “significantly decreased”. Further, the “AST and ALT levels” value in data set [6] (3 hours of reperfusion) is “trend for the animals pretreated with ruthenium red to have lower AST and ALT levels”. The “liver necrosis, percent area” value in data set [6] (3 hours of reperfusion) is recorded as 5%±2%; in [6] (6 hours of reperfusion) it was 3%±1%. In data set [6] (6 hour reperfusion time point), the “reduction in ALT levels” value was determined as 4 fold. Also, the “reduction in AST levels” value in [6] (6 hour reperfusion time point) stood at 2.5 fold. For the same compound, in [6] (all reperfusion time points (15 min, 1, 3, 6 hr)), the “rate of apoptosis (TUNEL)” value is reported as “significantly decreased”. Besides, the “AST or ALT levels in sham operated animals” value in [6] (pretreatment of sham operated animals vs. vehicle alone) was “did not alter”. In addition, the solubility in water result in data set [4] was “soluble in water”.

Consider `COc1ccc2c(c1)CCC1C2CCC2(C)C(NCCCCCCN3C(=O)C=CC3=O)CCC12` (stereo not drawn) [U-73122, 1-[6-((17β-3-Methoxyestra-1,3,5(10)-trien-17-yl)amino)hexyl]-1H-pyrrole-2,5-dione], for which, in [1] (5 μM or greater U-73122), the “inhibition of mitochondrial calcium uptake” value is listed as 90-100%. Besides, the mitochondrial calcium uptake result in data set [1] (setting [7]) is listed as “dose-dependently inhibited”. Moreover, in data set [1] (30 min, 37° C.), the EC50 was in the range of 2000 to 3000 nM. In addition, the “decrease of mitochondrial calcium uptake” value in [5] (5 μM, mitochondria from ischemic livers (24 h 4° C. UW), vs. ATP and calcium alone) was 85±2%. The “decrease of mitochondrial calcium influx” value in data set [5] (5 μM, mitochondria from non-ischemic livers, vs. ATP and calcium alone) was found to be 54±5%. In [4], the “solubility in DMSO” value was 1 mg/mL (≈ 2.15 mM) and the solubility in ethanol is 0.5 mg/mL (≈ 1.08 mM). The EC50 in the data set on PLC is 1000 to 2100 nM.

In the case of Ru360, the solubility in water result in data set [4] was “soluble in water”.
